Molecules are shown by their SMILES. pIC50: −log10 of the molar value. Calls of active or inactive are those of the source. No rule for the calls is given here.

Holding throughout (experiment): CXCR6 receptor antagonists, dose response, cell-based, beta-arrestin, DiscoveRx, APJ panel, uHTS hits (AID 624129)
Experiment [1] addresses Beta-galactosidase (Escherichia coli) (UniProt Q8VNN2). Conditions: CXCR6 beta-arrestin (DiscoveRx) antagonist cell assay, b-galactosidase.
In experiment [2] the target is Apelin receptor (Homo sapiens) (UniProt P35414). Particulars: CXCR6 beta-arrestin (DiscoveRx) antagonist cell assay, APJ.
Experiment [3] concerns the target C-X-C chemokine receptor type 6 (Homo sapiens) (UniProt O00574). Conditions: CXCR6 beta-arrestin (DiscoveRx) antagonist cell assay; for inhibition: CXCR6, run 1, dose range 2, at 80 µM (top of the series).
In experiment [4] the target is C-C chemokine receptor type 6 (Homo sapiens) (UniProt P51684). Particulars: CXCR6 beta-arrestin (DiscoveRx) antagonist cell assay.
Setting [5] is: dose range 1, mean IC50 across replicates.
The mark [6] stands for this setting: CXCR6, dose range 1, mean IC50 across replicates.
Where [7] appears, read: CCR6, dose range 1, mean IC50 across replicates.

Chain of Beta-galactosidase (Escherichia coli) (Q8VNN2 whole entry, looked up): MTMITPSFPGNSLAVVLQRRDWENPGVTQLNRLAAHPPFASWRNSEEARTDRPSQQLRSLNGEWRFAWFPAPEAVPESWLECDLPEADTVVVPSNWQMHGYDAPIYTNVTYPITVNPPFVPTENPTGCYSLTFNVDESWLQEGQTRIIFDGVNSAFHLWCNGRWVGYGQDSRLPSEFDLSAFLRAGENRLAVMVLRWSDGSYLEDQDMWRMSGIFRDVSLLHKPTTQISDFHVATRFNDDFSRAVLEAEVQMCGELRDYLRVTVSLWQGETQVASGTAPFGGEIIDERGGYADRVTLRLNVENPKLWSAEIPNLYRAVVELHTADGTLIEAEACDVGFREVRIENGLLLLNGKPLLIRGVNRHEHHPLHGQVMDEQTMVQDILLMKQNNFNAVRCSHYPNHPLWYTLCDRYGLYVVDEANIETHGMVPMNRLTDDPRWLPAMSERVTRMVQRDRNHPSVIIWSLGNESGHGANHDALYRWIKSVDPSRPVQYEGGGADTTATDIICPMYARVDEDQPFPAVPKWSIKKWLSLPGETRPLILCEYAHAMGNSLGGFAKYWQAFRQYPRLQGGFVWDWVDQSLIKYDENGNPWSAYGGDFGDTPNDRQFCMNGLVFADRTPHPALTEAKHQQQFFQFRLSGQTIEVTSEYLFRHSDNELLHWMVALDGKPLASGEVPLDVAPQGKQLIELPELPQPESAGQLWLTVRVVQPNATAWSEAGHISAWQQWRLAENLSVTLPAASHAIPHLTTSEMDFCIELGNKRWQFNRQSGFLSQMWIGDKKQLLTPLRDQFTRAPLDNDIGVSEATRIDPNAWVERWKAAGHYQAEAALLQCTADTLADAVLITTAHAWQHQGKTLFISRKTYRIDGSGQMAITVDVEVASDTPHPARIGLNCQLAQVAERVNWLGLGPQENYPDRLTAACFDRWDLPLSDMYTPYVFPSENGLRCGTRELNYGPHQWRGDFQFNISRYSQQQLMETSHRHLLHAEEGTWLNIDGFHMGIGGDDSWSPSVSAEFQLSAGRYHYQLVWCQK
Chain of C-X-C chemokine receptor type 6 (Homo sapiens) (O00574 whole entry, looked up): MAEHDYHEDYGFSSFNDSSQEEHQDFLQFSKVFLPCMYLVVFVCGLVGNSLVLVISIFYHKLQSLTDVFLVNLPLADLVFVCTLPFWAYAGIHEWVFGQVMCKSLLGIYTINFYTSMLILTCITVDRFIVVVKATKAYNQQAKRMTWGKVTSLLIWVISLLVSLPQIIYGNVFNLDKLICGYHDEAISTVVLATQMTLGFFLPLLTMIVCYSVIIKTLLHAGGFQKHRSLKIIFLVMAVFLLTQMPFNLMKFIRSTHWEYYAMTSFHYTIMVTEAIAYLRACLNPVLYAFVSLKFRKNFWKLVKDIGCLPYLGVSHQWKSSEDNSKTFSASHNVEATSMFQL

One may read the pIC50 as the IC50 on a negative log10 scale, so that one unit is a factor of ten. One may read the inhibition as the relative decrease from the control value, in per cent. For `O=c1oc2ccccc2c(Cl)c1CN1CCCCC1`, the negative-log IC50 (pIC50) in experiment [1] (dose range 1) was 4.59; in experiment [1] (setting [5]), 4.59; in experiment [2] (dose range 1), 4.88; in experiment [2] (setting [5]) it was 4.75; in experiment [2] (run 2, dose range 1), 4.67; in experiment [2] (run 3, dose range 1), 4.72. For the same molecule, the negative-log IC50 (pIC50) in experiment [3] (CXCR6, dose range 1) is 5.11; in experiment [3] (setting [6]), 5.11; in experiment [3] (CXCR6, run 2, dose range 1), 5.11; in experiment [4] (CCR6, dose range 1), 5.25; in experiment [4] (setting [7]), 5.22; in experiment [4] (CCR6, run 2, dose range 1), 5.18. Further, the inhibition in experiment [3] was 125%.
As usually defined, the IC50 is the point on the concentration scale where inhibition reaches its midpoint. Consider `NC(=S)N/N=C/c1ncc(C(F)(F)F)cc1Cl`, for which, in experiment [1] (dose range 1), the IC50 is > 80 µM (inactive). In addition, the pIC50 was below 4.10 in experiment [1] (setting [5]); 5.17 in experiment [2] (dose range 1); 5.11 in experiment [2] (setting [5]); 5.06 in experiment [2] (run 2, dose range 1); 5.11 in experiment [2] (run 3, dose range 1); 5.15 in experiment [3] (CXCR6, dose range 1). For the same molecule, the negative logarithm of the IC50 (pIC50) in experiment [3] (setting [6]) was 5.26; in experiment [3] (CXCR6, run 1, dose range 2) it was 5.44; in experiment [3] (CXCR6, run 2, dose range 1), 5.16; in experiment [3] (CXCR6, run 2, dose range 2), 5.37; in experiment [4] (CCR6, dose range 1) it was 5.22; in experiment [4] (setting [7]), 5.17. The molecule also gave a pIC50 in experiment [4] (CCR6, run 2, dose range 1) of 5.13.
In the case of `CC(=O)NC(=S)Nc1sc2c(c1C(N)=O)CCC(C)C2` (configuration not stated), the IC50 in experiment [1] (dose range 1) is > 80 µM (inactive); in experiment [3] (CXCR6, dose range 1) it was > 80 µM (inactive). In addition, the pIC50 in experiment [1] (setting [5]) is below 4.10; in experiment [2] (setting [5]), below 4.10; in experiment [2] (run 2, dose range 1) it was below 4.10; in experiment [2] (run 3, dose range 1), below 4.10; in experiment [3] (setting [6]) it was below 4.10; in experiment [3] (CXCR6, run 2, dose range 1), below 4.10. Moreover, the negative-log IC50 (pIC50) in experiment [4] (setting [7]) was below 4.10; in experiment [4] (CCR6, run 2, dose range 1), below 4.10. In experiment [3], the inhibition was -35.8%.
Take `Cc1ccc(C(=O)/C=C/C(=O)c2ccc(C)cc2)cc1`: the IC50 in experiment [1] (dose range 1) was > 80 µM (inactive); in experiment [3] (CXCR6, dose range 1), > 80 µM (inactive). The pIC50 in experiment [1] (setting [5]) is below 4.10; in experiment [2] (setting [5]) it was below 4.10; in experiment [2] (run 2, dose range 1) it was below 4.10; in experiment [2] (run 3, dose range 1), below 4.10; in experiment [3] (setting [6]), below 4.10; in experiment [3] (CXCR6, run 2, dose range 1) it was below 4.10. In addition, the negative logarithm of the IC50 (pIC50) in experiment [4] (setting [7]) is below 4.10; in experiment [4] (CCR6, run 2, dose range 1) it was below 4.10. In experiment [3], the inhibition stood at 19.4%.
Turning to `Cc1cc(Cl)n2c(nc3cc(F)c(F)cc32)c1C#N`, in experiment [1] (dose range 1), the IC50 is > 80 µM (inactive). The negative-log IC50 (pIC50) in experiment [1] (setting [5]) was below 4.10; in experiment [2] (setting [5]) it was below 4.10; in experiment [2] (run 2, dose range 1) it was below 4.10; in experiment [2] (run 3, dose range 1) it was below 4.10; in experiment [3] (setting [6]), 4.61; in experiment [3] (CXCR6, run 1, dose range 2), 5.21. For the same molecule, the pIC50 in experiment [3] (CXCR6, run 2, dose range 1) was 4.28; in experiment [3] (CXCR6, run 2, dose range 2), 5.22; in experiment [4] (CCR6, dose range 1), 5.15; in experiment [4] (setting [7]), 5.01; in experiment [4] (CCR6, run 2, dose range 1) it was 4.90. In experiment [3] (CXCR6, dose range 1), the IC50 result was “inactive”.
Regarding `CCN(c1ccccc1)S(=O)(=O)c1ccc(NC(=O)c2nc(S(C)(=O)=O)ncc2Cl)cc1`, in experiment [1] (dose range 1), the IC50 is > 80 µM (inactive). Moreover, the negative logarithm of the IC50 (pIC50) in experiment [1] (setting [5]) is below 4.10; in experiment [2] (dose range 1) it was 4.79; in experiment [2] (setting [5]), 4.80; in experiment [2] (run 2, dose range 1) it was 4.82; in experiment [2] (run 3, dose range 1) it was 4.78; in experiment [3] (CXCR6, dose range 1) it was 4.97. The pIC50 was 4.96 in experiment [3] (setting [6]); 4.98 in experiment [3] (CXCR6, run 1, dose range 2); 4.94 in experiment [3] (CXCR6, run 2, dose range 1); 4.97 in experiment [3] (CXCR6, run 2, dose range 2); 4.94 in experiment [4] (CCR6, dose range 1); 4.96 in experiment [4] (setting [7]). The pIC50 in experiment [4] (CCR6, run 2, dose range 1) was 4.99.
With `Cn1c(=O)c([N+](=O)[O-])c(Cl)c2ccccc21`, the IC50 in experiment [1] (dose range 1) was > 80 µM (inactive). Also, the pIC50 in experiment [1] (setting [5]) was below 4.10; in experiment [2] (dose range 1), 4.79; in experiment [2] (setting [5]) it was 4.53; in experiment [2] (run 2, dose range 1), 4.37; in experiment [2] (run 3, dose range 1) it was below 4.10; in experiment [3] (setting [6]), 4.65. Further, the pIC50 in experiment [3] (CXCR6, run 2, dose range 1) is below 4.10; in experiment [4] (CCR6, dose range 1), 4.79; in experiment [4] (setting [7]), 4.66; in experiment [4] (CCR6, run 2, dose range 1) it was 4.57. The IC50 result in experiment [3] (CXCR6, dose range 1) is “inactive”. The inhibition in experiment [3] was 116%.
With `CCCCCCN1C=C/C(=C\C=C(C#N)C#N)c2ccccc21`, the IC50 in experiment [1] (dose range 1) is > 80 µM (inactive). The negative logarithm of the IC50 (pIC50) was below 4.10 in experiment [1] (setting [5]); 4.57 in experiment [2] (dose range 1); 4.45 in experiment [2] (setting [5]); 4.28 in experiment [2] (run 2, dose range 1); 4.57 in experiment [2] (run 3, dose range 1); 4.37 in experiment [3] (setting [6]). Moreover, the pIC50 in experiment [3] (CXCR6, run 2, dose range 1) was 4.36; in experiment [4] (CCR6, dose range 1), 4.63; in experiment [4] (setting [7]), 4.70; in experiment [4] (CCR6, run 2, dose range 1), 4.79. For the same molecule, the IC50 entry in experiment [3] (CXCR6, dose range 1) is “inactive”. In experiment [3], the inhibition is 158%.

(Values after PubChem BioAssay AID624129 (Sanford-Burnham Center for Chemical Genomics, 2012).)
